{"source": "paper PMC10047683", "about": "“A Novel Family of Lysosomotropic Tetracyclic Compounds for Treating Leukemia” (Cancers, 2023)", "key": {"[1]": {"assay": "Pharmacokinetic study in mice", "type": "in vivo, CD-1 mice", "settings": "30 mg/kg orally and subcutaneously", "method": "All ADMET studies were performed in Eurofins Discovery Services (CEREP laboratories, Celle-Lévescault France). The pharmacokinetic studies were performed in Draconis Pharma SL (Barcelona, Spain) in CD-1 mice treated with 30 mg/kg EDK87 or EDK88 via SC or OG. Blood was collected by cardiac puncture at 0.5, 1, 2, 4, or 24 h."}, "[2]": {"system": "AML cell lines", "assay": "Seahorse oxygen consumption (OCR)", "type": "cell-based", "settings": "5 and 10 µM, 24 h", "method": "Seahorse studies were performed using the Agilent Seahorse XF Real-Time ATP Rate Assay Kit. […] Cells were washed and suspended in Seahorse medium (Seahorse XF medium with 2 mM glutamine, 10 mM glucose, 2 mM pyruvate) at a concentration of 1.4 × 10^6 (Mono Mac1) and 2.4 × 10^6 (HL60) cells per mL; 50 μL per well were seeded in 96-well Seahorse plates precoated with polylysine, centrifuged, and left to adhere for 20 min at 37 °C before adding prewarmed Seahorse medium to a final volume of 180 μL per well. Basal OCR and ECAR were measured, and the ATP rate assay was performed with the sequential injection of 1.5 μM oligomycin and 0.5 μM rotenone/antimycin A. A detailed description of this protocol was provided by the manufacturers. Mitochondrial ROS was quantified using the MitoSOX Red Mitochondrial Superoxide Indicator (Thermo Fischer Scientific, Waltham, MA, USA), as previously described. The activation of executive caspases was determined using CaspaseGlo® 3/7 Assay (Promega), following the manufacturer’s recommendations. The detection of Annexin-V staining was also described previously."}, "[3]": {"system": "HCT-15", "assay": "Pancancer cell line panel viability", "type": "cell-based", "settings": "10 µM, 48 h", "method": "(§1) First, 2 × 10^5 (72 h assays in cell lines (Supplementary File S1)), 3 × 10^5 (48 h assays in cell lines) or 7.5 × 10^5 (primary AML, healthy donor buffy coats) cells per mL were cultured in 96-well plates, and all drugs were added at the indicated concentrations. In α-tocopherol experiments, cells were treated with growing concentrations of α-tocopherol and EDK drugs for 48 h. In the NAC and 3MA experiments, treatment was simultaneous with EDK compounds. In glucose deprivation experiments, cells were cultivated with a standard medium (glucose high, 2 g/L), a standard medium without glucose, or a standard medium with galactose (2 g/L) and without glucose. Cell viability was measured via 7-AAD (eBioscience) exclusion and Hoechst33342 (Sigma-Aldrich, St. Louis, MO, USA) positivity staining via flow cytometry, and the cell count was obtained through volume. In the experiments with the primary cells, analyses were performed inside the blast population as detected via blast gates (CD45^low SSC^int). For solid tumor cell lines, viability was analyzed using CellTiter-Glo® Luminescent Cell Viability Assay (Promega).\n(§2) AML cell lines and cell cultures\n(§3) Cell lines HL-60 (ACC-3), KG-1 (ACC-14), MonoMac-1 (ACC-252), Kasumi-1 […]\n(§4) obtained from DSMZ. Cell lines THP-1 (TIB-202TM), MCF-7 (HTB-22™), MDA- […]\n(§5) 3216™) and HS-5 (CRL-11882™) were obtained from ATCC. HBL-2 cell line was kindly supplied by Dr. Pérez-Galán (IDIBAPS, Barcelona, Spain). SKM-1 and U937 were kindly provided by Dr. Marcus Buschbeck (IJC, Badalona, Spain). All cell lines were cultured in the conditions indicated by the providers, and were tested for mycoplasma on a monthly basis.\n(§6) All drugs were resuspended in H2O (Thermo Fischer Scientific), DMSO (Sigma-Aldrich) or ethanol (VWR) according to manufacturer’s specifications. - tocopherol, 3-methyladenine (3MA), arsenic trioxide (ATO) and N-acetyl-L-cysteine (NAC) were purchased from Sigma Aldrich. Chloroquine diphosphate was purchased from Merck. Etoposide and ionomycin were purchased from […]\n(§7) (1 picture or pasted object on this page, not shown here)"}, "[4]": {"system": "SR", "assay": "Pancancer cell line panel viability", "type": "cell-based", "settings": "10 µM, 48 h", "method": "as §1, §2, §3, §4, §5, §6, §7"}, "[5]": {"system": "DU-145", "assay": "Pancancer cell line panel viability", "type": "cell-based", "settings": "10 µM, 48 h", "method": "as §1, §2, §3, §4, §5, §6, §7"}, "[6]": {"system": "K562", "assay": "Pancancer cell line panel viability", "type": "cell-based", "settings": "10 µM, 48 h", "method": "as §1, §2, §3, §4, §5, §6, §7"}, "[7]": {"system": "RAMOS", "assay": "Pancancer cell line panel viability", "type": "cell-based", "settings": "10 µM, 48 h", "method": "as §1, §2, §3, §4, §5, §6, §7"}, "[8]": {"system": "NCI", "assay": "Pancancer cell line panel viability", "type": "cell-based", "settings": "10 µM, 48 h", "method": "as §1, §2, §3, §4, §5, §6, §7"}, "[9]": {"system": "JJN3", "assay": "Pancancer cell line panel viability", "type": "cell-based", "settings": "10 µM, 48 h", "method": "as §1, §2, §3, §4, §5, §6, §7"}, "[10]": {"system": "GRANTA", "assay": "Pancancer cell line panel viability", "type": "cell-based", "settings": "10 µM, 48 h", "method": "as §1, §2, §3, §4, §5, §6, §7"}, "[11]": {"system": "A549", "assay": "Pancancer cell line panel viability", "type": "cell-based", "settings": "10 µM, 48 h", "method": "as §1, §2, §3, §4, §5, §6, §7"}, "[12]": {"system": "ACHN", "assay": "Pancancer cell line panel viability", "type": "cell-based", "settings": "10 µM, 48 h", "method": "as §1, §2, §3, §4, §5, §6, §7"}, "[13]": {"system": "HOP62", "assay": "Pancancer cell line panel viability", "type": "cell-based", "settings": "10 µM, 48 h", "method": "as §1, §2, §3, §4, §5, §6, §7"}, "[14]": {"system": "OVCAR", "assay": "Pancancer cell line panel viability", "type": "cell-based", "settings": "10 µM, 48 h", "method": "as §1, §2, §3, §4, §5, §6, §7"}, "[15]": {"system": "U266", "assay": "Pancancer cell line panel viability", "type": "cell-based", "settings": "10 µM, 48 h", "method": "as §1, §2, §3, §4, §5, §6, §7"}, "[16]": {"system": "MDA-MB-231", "assay": "Pancancer cell line panel viability", "type": "cell-based", "settings": "10 µM, 48 h", "method": "as §1, §2, §3, §4, §5, §6, §7"}, "[17]": {"system": "MCF-7", "assay": "Pancancer cell line panel viability", "type": "cell-based", "settings": "10 µM, 48 h", "method": "as §1, §2, §3, §4, §5, §6, §7"}, "[18]": {"system": "PC-3", "assay": "Pancancer cell line panel viability", "type": "cell-based", "settings": "10 µM, 48 h", "method": "as §1, §2, §3, §4, §5, §6, §7"}, "[19]": {"system": "M14", "assay": "Pancancer cell line panel viability", "type": "cell-based", "settings": "10 µM, 48 h", "method": "as §1, §2, §3, §4, §5, §6, §7"}, "[20]": {"system": "Jurkat", "assay": "Pancancer cell line panel viability", "type": "cell-based", "settings": "10 µM, 48 h", "method": "as §1, §2, §3, §4, §5, §6, §7"}, "[21]": {"system": "MOLT4", "assay": "Pancancer cell line panel viability", "type": "cell-based", "settings": "10 µM, 48 h", "method": "as §1, §2, §3, §4, §5, §6, §7"}, "[22]": {"system": "CAKI", "assay": "Pancancer cell line panel viability", "type": "cell-based", "settings": "10 µM, 48 h", "method": "as §1, §2, §3, §4, §5, §6, §7"}, "[23]": {"system": "HCT-116", "assay": "Pancancer cell line panel viability", "type": "cell-based", "settings": "10 µM, 48 h", "method": "as §1, §2, §3, §4, §5, §6, §7"}, "[24]": {"system": "MDA-MB-435", "assay": "Pancancer cell line panel viability", "type": "cell-based", "settings": "10 µM, 48 h", "method": "as §1, §2, §3, §4, §5, §6, §7"}, "[25]": {"system": "HBL2", "assay": "Pancancer cell line panel viability", "type": "cell-based", "settings": "10 µM, 48 h", "method": "as §1, §2, §3, §4, §5, §6, §7"}, "[26]": {"system": "HEK-293T", "assay": "Pancancer cell line panel viability (nontumor line)", "type": "cell-based", "settings": "HEK-293T (nontumor); 10 µM; 48 h", "method": "as §1, §2, §3, §4, §5, §6, §7"}, "[27]": {"system": "HS-5", "assay": "Pancancer cell line panel viability (nontumor line)", "type": "cell-based", "settings": "HS-5 (nontumor); 10 µM; 48 h", "method": "as §1, §2, §3, §4, §5, §6, §7"}}}
{"smiles": "CN1CCC(=C2c3ccccc3-c3c2sc2ccccc32)CC1", "note": "[EDK-87]", "values": [{"measurement": "clearance (PK)", "setting": "[1]", "value": "high"}, {"measurement": "plasma level", "setting": "[1]", "value": "low"}, {"measurement": "volume of distribution", "setting": "[1]", "value": "high"}, {"measurement": "oxygen consumption (OCR)", "setting": "[2]", "value": "drastic reduction in oxygen consumption"}, {"measurement": "# Live cells refer to control", "setting": "[3]", "value": 52, "unit": "%"}, {"measurement": "# Live cells refer to control", "setting": "[4]", "value": 42, "unit": "%"}, {"measurement": "# Live cells refer to control", "setting": "[5]", "value": 57, "unit": "%"}, {"measurement": "# Live cells refer to control", "setting": "[6]", "value": 87, "unit": "%"}, {"measurement": "# Live cells refer to control", "setting": "[7]", "value": 74, "unit": "%"}, {"measurement": "# Live cells refer to control", "setting": "[8]", "value": 45, "unit": "%"}, {"measurement": "# Live cells refer to control", "setting": "[9]", "value": 55, "unit": "%"}, {"measurement": "# Live cells refer to control", "setting": "[10]", "value": 35, "unit": "%"}, {"measurement": "# Live cells refer to control", "setting": "[11]", "value": 74, "unit": "%"}, {"measurement": "# Live cells refer to control", "setting": "[12]", "value": 70, "unit": "%"}, {"measurement": "# Live cells refer to control", "setting": "[13]", "value": 44, "unit": "%"}, {"measurement": "# Live cells refer to control", "setting": "[14]", "value": 59, "unit": "%"}, {"measurement": "# Live cells refer to control", "setting": "[15]", "value": 70, "unit": "%"}, {"measurement": "# Live cells refer to control", "setting": "[16]", "value": 47, "unit": "%"}, {"measurement": "# Live cells refer to control", "setting": "[17]", "value": 32, "unit": "%"}, {"measurement": "# Live cells refer to control", "setting": "[18]", "value": 65, "unit": "%"}, {"measurement": "# Live cells refer to control", "setting": "[19]", "value": 21, "unit": "%"}, {"measurement": "# Live cells refer to control", "setting": "[20]", "value": 51, "unit": "%"}, {"measurement": "# Live cells refer to control", "setting": "[21]", "value": 25, "unit": "%"}, {"measurement": "# Live cells refer to control", "setting": "[22]", "value": 58, "unit": "%"}, {"measurement": "# Live cells refer to control", "setting": "[23]", "value": 64, "unit": "%"}, {"measurement": "# Live cells refer to control", "setting": "[24]", "value": 11, "unit": "%"}, {"measurement": "# Live cells refer to control", "setting": "[25]", "value": 58, "unit": "%"}, {"measurement": "# Live cells refer to control", "setting": "[26]", "value": 79, "unit": "%"}, {"measurement": "# Live cells refer to control", "setting": "[27]", "value": 71, "unit": "%"}]}
